The subject of one series is Neuronal cortical cells. Kind of series: Assay for test compound cytoxicity, MTS (Assay 3(d)). Format: cell-based, mouse. As to conditions: BL6J×129sv, mouse, 4 days.
In series [1] the target is T1, hydrogen peroxide generation by Aβ in the presence of copper (Homo sapiens, UniProt P05067).
T1 construct: The reaction solutions contained Aβ 1-42 at concentrations in the range of 50 nM to 1 μM
The experiment in a line: Fluorometric H2O2 assay (Assay 1). The format is biochemical. To be noted: Aβ 1-42 with Cu-Gly, DCF/HRP, 37 C 60 min; several values in one cell = repeat determinations; read-out: Peroxide IC50. In a few lines: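 Aβ1-42 (50 nM–1 μM) with Cu-glycine (2 Cu-Gly : 1 Aβ) and a reductant (dopamine 5 μM or ascorbic acid) was incubated 60 min at 37 °C in PBS pH 7.4 with test compound. H2O2 was detected with 100 μM deacetylated DCF and 0.1 μM HRP by fluorescence against H2O2 standards.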

Series [2] has as its system Aβ in extract of tissue from post mortem human AD brain. Kind of series: Human brain amyloid solubilisation assay (Assay 9, BAS). Format: biochemical. To be noted: solubilising plaques relative to PBS. In a few lines:
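Plaque-bearing post mortem AD cortex homogenised in ice-cold PBS pH 7.4 and spun 100,000×g, 30 min to separate PBS-soluble supernatant from insoluble pellet. Aβ in each fraction resolved on Tris-Tricine 10-20% gels, immunoblotted with W02 antibody and ECL, quantified by densitometry against synthetic Aβ40 standards (0.5, 1, 2 ng).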

The subject of series [3] is Neuronal cortical cells treated with Aβ1-42. The experiment in a line: Assay for Aβ neurotoxicity and Aβ neuroprotection (Assay 3(c)). As to conditions: 20 uM Aβ1-42, 4 days, MTS. Format: cell-based, mouse.
Series [4] is described as follows: Turbidimetric solubility measurements (Assay 13). Format: physicochemical. As to conditions: kinetic from dmso stock, 1% DMSO, nephelometry. Here is the method:
Turbidimetric Solubility Measurements
The solubility estimate was measured at both pH 2.0 and pH 6.5. This is within the pH range that can be anticipated along the proximal gastrointestinal tract in humans.
The compounds were dissolved in DMSO to appropriate concentrations and then spiked into either 0.01M HCl (approx. pH=2.0) or pH 6.5 isotonic phosphate buffer, the final DMSO concentration being 1%. Samples were then analysed via Nephelometry to determine a solubility range. [as per D. Bevan and R. S. Lloyd, Anal. Chem. 2000, 72, 1781-1787].

For series [5], the system named is APP2576 transgenic mouse. The experiment in a line: Transgenic mouse brain immunohistochemistry, plaque abundance (Assay 15). The format is in vivo. An excerpt: Assay 15. Transgenic Mouse Brain Immunohistochemistry
The APP2576 transgenic mouse (Hsiao et al., 1996) as referred to in Assay 11 were utilized in this assay. The contralateral formalin-fixed mouse brain tissue was coronally cut. Sections (10 μm) were taken from the corresponding sites and treated with 80% formic acid for antigen retrieval. The primary antibody used was monoclonal antibody 1E8, which recognizes epitopes between residues 18 and 22 of Aβ (SmithKline Beecham, UK). Immunoreactivity was developed with secondary antibody linked to horseradish peroxidase (using a 3,39-diaminobenzidinechromagen) (Dako) and alkaline phosphatase (using 5-bromo-4-chloro 3-indoxyl phosphate and nitroblue tetrazolium chloride chromagen) (Dako). Plaque abundance per section was assessed by two operators blinded to treatment according to the following scale:
1=plaques present but very sparse
2=several plaques present
3=numerous plaques visible in restricted areas
4=plaques abundant and not restricted to any particular area.
Intermediate values eg 2.5 were assigned where applicable.
Students' t ‘test was used for comparisons between groups.

A short description of series [6]: E Log D, chromatographic method (Assay 13). Format: physicochemical. As to conditions: SUPELCOSIL LC-ABZ column with octanol saturated mobile phase, pH 7.4; read-out: E Log D7.4. As for the experimental part: Effective Log D values were measured using a chromatographic method employing a SUPELCOSIL LC-ABZ column using an octanol saturated mobile phase at pH 7.4.

Series [7] concerns APP2576 transgenic mouse. Kind of series: Effect of administration of test compounds on Aβ deposits in transgenic animals (Assay 11). Format: in vivo. Also on record: concentration or dose not given beside the values. To be noted: transgenic mouse brains.
Series [8] concerns APP2576 transgenic mouse. As to conditions: previous studies on transgenic mice, 20-30 mg/kg orally daily five days per week, 2-3 months; cited from earlier work.
The subject of series [9] is moderately severe AD patients. The experiment in a line: Phase II clinical trial of PBT-1 in Alzheimer's disease (Example 21). The format is in vivo, human. As to conditions: for Steady state pre-dose levels of PBT-1: blood; for difference in mean change from baseline ADAS-cog score of PBT-1 over placebo: more-severely affected groups. An excerpt: The performance of the less-severely affected group (ADAS-cog<25) deteriorated negligibly over this interval, so cognitive changes could not be discriminated in this stratum.
The study took place at the AD clinical trials unit, Mental Health Research Institute of Victoria and at the Royal Melbourne Hospital. Criteria for inclusion in the study were: informed consent; a diagnosis of probable AD by NINCDS-ADRDA criteria (McKhann et al., 1984); AD Assessment Scale-cognitive (ADAS-cog) (Rosen et al., 1984) score of 18-45; Mini Mental State Examination (MMSE) (Folstein et al., 1975) score of 10-24; on donepezil 5 mg or 10 mg for at least 6 months; relative or carrier willing and able to support the trial; able to complete trial examinations; primary sensorial functions intact.
The study was a double blind, placebo-controlled, parallel group randomized design. […] The duration of the study was 36 weeks.
Screening procedures consisted of a complete medical history, physical, neurological and ophthalmic examination, blood and urine tests and psychometric tests (ADAS-cog, MMSE). Nerve conduction tests and visual evoked responses were conducted between the screening and baseline visits to provide a baseline measurement. Blood was collected for ApoE allotyping, baseline plasma levels of metals and Aβ prior to randomization. All patients continued their study entry dose of donepezil and all patients received 100 mg vitamin B12 intramuscularly every four weeks.
Blood samples were collected by antecubital venepuncture except on weeks 12, 24 and 36 when they were collected by an indwelling catheter. […] Zn data from these intervals were therefore omitted from analysis.
The primary clinical efficacy variable was a change from baseline score on the ADAS-cog conducted at baseline and at weeks 4, 12, 24 and 36. This measure was chosen to allow comparability of treatment effects with current therapeutics such as donepezil, where efficacy trials also used ADAS-cog as their primary outcome measure (Rogers et al., 1998). Although numerous neuropsychological tests could be considered as secondary measures, it was necessary to avoid fatiguing the subjects at review. Therefore the only other cognitive test was the Mini-Mental State Exam (MMSE). The CIBIC+ (clinician interview based impression of change incorporating caregiver information), a subjective observational index was also conducted. Plasma Aβ, and plasma zinc and copper were all taken every four weeks.
Polystyrene plates were coated with mAb G210 (for Aβ40) or mAb G211 (for Aβ42). Plates were washed and biotinylated mAb WO2 was added. Bound antibody was detected with streptavidin-labelled Europium (Perkin Elmer, Vic Australia). The values obtained from triplicated wells were calculated based on standard curves generated on each plate. Plasma samples supplemented with synthetic Aβ1-40 and Aβ1-42 were also assayed to confirm measurement reliability across the concentration range of interest.
Metals were measured by inductively coupled plasma mass spectrometry as previously described (Cherny et al., 2001).
Standard adverse event reporting was conducted and biochemical tests, renal and liver function, complete blood examination, serum vitamin B12 and folate levels were documented at each visit. To assess for peripheral and optic neuropathy a neurological examination was conducted at each visit, and visual evoked responses, nerve conduction studies and ophthalmic examination were conducted at screening, week 16 and prior to the final trial visit. An ECG was done at screening and weeks 12, 24 and 36.
Data monitoring and management were undertaken by independent contractors (Kendle International and Health Research Solutions, Melbourne). Evidence for efficacy was indicated by a significant difference in change from baseline between treatment arms. […]

Converted amounts (≈) assume the structure as drawn. Read-outs that look alike come from different tables or passages of the source.

T1 sequence (P05067 672-713 limits assumed): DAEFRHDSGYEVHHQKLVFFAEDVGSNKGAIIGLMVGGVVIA

In general, IC50 refers to the concentration at which inhibition is half-maximal. In the case of `O=C(NCCc1ccccn1)c1ccc2cccc(O)c2n1` [compound 950], in the series with Neuronal cortical cells, the Test Compound Cytoxicity 0.1 um is 95%, the “Test Compound Cytoxicity 1 uM” value was determined as 88, the “Test Compound Cytoxicity 10 uM” value was 89 and the “Viable 10 uM” value came out at 92.8. In addition, the IC50 in series [1] was 250 nM. The “BAS Score” value in series [2] is “+”. In addition, the “% inhibition Abeta toxicity” value in series [3] was determined as 5%.
`Oc1c(Cl)cc(Cl)c2cccnc12` [compound 45]: in the series with Neuronal cortical cells, the Test Compound Cytoxicity 0.1 um was found to be 100%, the “Test Compound Cytoxicity 1 uM” value is recorded as 92 and the “Test Compound Cytoxicity 10 uM” value stood at 67. The IC50 in [1] came to 700 nM. Moreover, the “BAS Score” value in series [2] is given as “++”. In series [3], the “% inhibition Abeta toxicity” value is recorded as 28%.
As for `Cc1ccccc1-c1cc(Cl)c2cccnc2c1O` [compound 854], in the series with Neuronal cortical cells, the Test Compound Cytoxicity 0.1 um turned out to be 94%, the “Test Compound Cytoxicity 1 uM” value was found to be 81 and the “Test Compound Cytoxicity 10 uM” value worked out at 36. Also, the IC50 in series [1] was under 780 nM. Besides, the “BAS Score” value in series [2] was “+”. In addition, the “% inhibition Abeta toxicity” value in [3] is on record as 22%.
`O=C(NCCc1c[nH]cn1)c1ccc2cccc(O)c2n1` [compound 948]: in the series with Neuronal cortical cells, the Test Compound Cytoxicity 0.1 um was determined as 100%, the “Test Compound Cytoxicity 1 uM” value is given as 79, the “Test Compound Cytoxicity 10 uM” value is reported as 85 and the “Viable 10 uM” value turned out to be 106.66. Further, in [1], the IC50 was 190 nM. Further, the “BAS Score” value in [2] is on record as “+”. In addition, in [3], the “% inhibition Abeta toxicity” value is on record as 9%.
Consider `Oc1c(Cl)cc(Cl)c2ccc(-c3ccccn3)nc12` [compound 1052, 5,7-dichloro-8-hydroxy-2-(2-pyridyl)quinoline], for which the “Test Compound Cytoxicity 1 uM” value in the series with Neuronal cortical cells came to 63. In addition, the “Test Compound Cytoxicity 10 uM” value with Neuronal cortical cells is reported as 32. In addition, the solubility in series [4] (aqueous buffer, pH 6.5 isotonic phosphate buffer, read-out: Solubility pH 6.5) was under 3.1 µg/mL; in series [4] (simulated gastric fluid, 0.01M HCl (approx. pH 2.0), read-out: Solubility (μg/mL) 0.01M HCl), 6.3 to 12.5 µg/mL (≈ 21.6 to 42.9 µM). For the same compound, the “% difference from control (sham treated animal)” value with APP2576 transgenic mouse [5] (plaque score) was −8%. In the series with APP2576 transgenic mouse [5] (scale 0 to 4), the Mean plaque score was 3.2. For the same compound, the chromatographic logD in series [6] came to 2.85. For the same compound, the “Insoluble fraction. % change compared with control.” value in the series on APP2576 transgenic mouse [7] (insoluble Aβ) is listed as −22%. Further, the “Soluble fraction. % change compared with control.” value in the series on APP2576 transgenic mouse [7] (soluble Aβ) was “negligible”. Moreover, the “BAS Score” value in [2] is “+”. Also, the “% inhibition Abeta toxicity” value in [3] amounted to 19%.
Regarding `Oc1c(I)cc(Cl)c2cccnc12` [PBT-1], the “inhibiting Aβ accumulation” value in the series on APP2576 transgenic mouse [8] was “markedly effective”. Moreover, the “effect on plasma Cu” value in series [9] (AD patients) was “no effect”. The “elevation of total plasma Zn” value in series [9] (AD patients) is listed as “≈ 30%”. In addition, the “Steady state pre-dose levels of PBT-1” value in series [9] (total daily dosage 250 mg) was 4.03 ± 2.10 µg/mL; in series [9] (total daily dosage 500 mg) it was 6.74 ± 3.70 µg/mL; in [9] (total daily dosage 750 mg) it was 7.60 ± 2.15 µg/mL. In [9] (from week 20 onwards), the “Plasma Aβ42 change from baseline” value is reported as “significant decline from baseline”. In addition, the “difference in mean change from baseline ADAS-cog score of PBT-1 over placebo” value in series [9] (week 24) is 7.37; in series [9] (week 36), 6.36. In addition, the “effect of treatment in preventing cognitive deterioration” value in series [9] (over 36 weeks, more-severely affected patients (baseline ADAS-cog≧25)) is reported as “statistically significant”.

The values are drawn from US9302993B2, “8-hydroxy quinoline derivatives” (PRANA BIOTECHNOLOGY LIMITED, priority 2002, dated 2016).
